Test results: ChEMBL document CHEMBL1125608, “Synthesis and biological activity of angiotensin II analogues containing a Val-His replacement, Val psi[CH(CONH2)NH]His” (J Med Chem, 1991)
Peptide text beside a SMILES is read from it. * marks the point of attachment. Propanoyl(3-(4-MeO-Ph)) = COc1ccc(CCC(=O)*)cc1; Desaminotyrosyl = O=C(CCc1ccc(O)cc1)*; Cbz = O=C(OCc1ccccc1)*

Assays:
[1] = target: Angiotensin II receptor (Cavia porcellus); test: Inhibitory activity as antagonist of AII on guinea pig ileum
[2] = organism: Cavia porcellus; test: The compound was tested for its inhibitory activity as antagonist of AI on guinea pig ileum; format: functional, organism-based
[3] = system: Angiotensin II receptor (Oryctolagus cuniculus); test: Displacement of [3H]Angiotensin II (300 ng/mL) from rabbit adrenal cortex
[4] = target: Angiotensin II receptor (Cavia porcellus); test: The compound was tested for its inhibitory activity as antagonist of AII on guinea pig ileum

Row | IC50 [1] | IC50 [2] | Displacement [3] | IC50 [4] | Compound
1 | 0.45 nM | 0.51 nM | 100% | – | CC[C@H](C)[C@H](NC(=O)[C@@H]1CCCN1C(=O)[C@H](Cc1c[nH]cn1)NC(=O)[C@@H](NC(=O)[C@H](Cc1ccc(O)cc1)NC(=O)[C@@H](NC(=O)[C@H](CCCN=C(N)N)NC(=O)CNC)C(C)C)C(C)C)C(=O)O
2 | – | 0.17 nM | – | – | CC[C@H](C)[C@H](NC(=O)[C@@H]1CCCN1C(=O)[C@H](Cc1c[nH]cn1)NC(=O)[C@@H](NC(=O)[C@H](Cc1ccc(O)cc1)NC(=O)[C@@H](NC(=O)[C@H](CCCN=C(N)N)NC(=O)CNC)C(C)C)[C@@H](C)CC)C(=O)O
3 | – | > 15000 nM | – | > 15000 nM | CC[C@H](C)[C@H](NC(=O)[C@@H]1CCCN1C(=O)[C@H](Cc1c[nH]cn1)NC(C(N)=O)[C@@H](NC(=O)OCc1ccccc1)C(C)C)C(=O)O (some centres undefined)
4 | – | 0.56 nM | – | – | CC[C@H](C)[C@H](NC(=O)[C@H](Cc1ccc(O)cc1)NC(=O)[C@@H](NC(=O)[C@H](CCCN=C(N)N)NC(=O)CNC)C(C)C)C(=O)N[C@@H](Cc1c[nH]cn1)C(=O)N1CCC[C@H]1C(=O)N[C@@H](C)C(=O)O
5 | 330 nM | 345 nM | – | – | CC[C@H](C)[C@H](NC(=O)[C@@H]1CCCN1C(=O)[C@H](Cc1c[nH]cn1)N[C@H](C(N)=O)[C@@H](NC(=O)[C@H](Cc1ccc(O)cc1)NC(=O)[C@@H](NC(=O)[C@H](CCCN=C(N)N)NC(=O)CNC)C(C)C)C(C)C)C(=O)O
6 | > 15000 nM | > 15000 nM | 10% | – | CC[C@H](C)[C@H](NC(=O)[C@@H]1CCCN1C(=O)[C@H](Cc1c[nH]cn1)NC(=O)[C@@H](NC(=O)OCc1ccccc1)C(C)C)C(=O)O (Cbz-VHPI-OH)
7 | – | 0.048 nM | – | – | CNCC(=O)N[C@@H](CCCNC(=N)N)C(=O)N[C@H](C(=O)N[C@@H](Cc1ccc(O)cc1)C(=O)N[C@H](C(=O)N[C@@H](Cc1cnc[nH]1)C(=O)N1CCC[C@H]1C(=O)N[C@@H](C)C(=O)O)C(C)C)C(C)C [SARALASIN]
8 | > 15000 nM | > 15000 nM | 0% | – | CC[C@H](C)[C@H](NC(=O)[C@@H]1CCCN1C(=O)[C@H](Cc1c[nH]cn1)NC(=O)[C@@H](NC(=O)CCc1ccc(OC)cc1)C(C)C)C(=O)O ({Propanoyl(3-(4-MeO-Ph))}-VHPI-OH)
9 | > 15000 nM | > 15000 nM | 0% | – | CC[C@H](C)[C@H](NC(=O)[C@@H]1CCCN1C(=O)[C@H](Cc1c[nH]cn1)NC(=O)[C@@H](NC(=O)CCc1ccc(O)cc1)C(C)C)C(=O)O (Desaminotyrosyl-VHPI-OH)
